# Earlier results, collected in article PMC8587515, “Cytotoxic and Anti-Inflammatory Activities of Dihydroisocoumarin and Xanthone Derivatives from Garcinia picrorhiza” (Molecules, 2021).
# Assays:
# [1] = tested on: MCF-7 (human breast adenocarcinoma); parameters: method as in PMID 30153471, PMID 33999337; conditions: MTT; results based on previous work; read-out: IC50 ± SEM, MCF-7; cited from earlier work
# [2] = tested on: HT-29 (human colon adenocarcinoma); parameters: method as in PMID 30153471, PMID 33999337; key to IC50 ± SEM, HT-29: IC50 ≤ 10 µM = good cytotoxicity; 10 µM < IC50 ≤ 30 µM = weak cytotoxicity; inactive (IC50 > 30 µM); conditions: MTT; results based on previous work; cited from earlier work
compound,measurement,setting,value
"C[C@@H]1Oc2cc(O)c3c(=O)c4ccc(O)c(O)c4oc3c2C1(C)C [Compound 7, 2-deprenylrheediaxanthone B]",IC50,[1],6.5 ± 0.2 µM
same,"IC50 ± SEM, HT-29",[2],inactive
